According to ChEMBL document CHEMBL1221222, “Analysis of the eukaryotic prenylome by isoprenoid affinity tagging” (Nat Chem Biol, 2009):
Activity calls are given as the source filed them. No cut-off for these calls is given here.

Tests used:
[1] = system: Protein farnesyltransferase subunit beta (Homo sapiens), P49356 [W102T]; assay: Binding affinity to FTase W102T mutant assessed as prenylation of Ki-Ras by Western blot analysis
[2] = Binding affinity to GGTase-1 F53Y/Y126T mutant assessed as prenylation of RhoA GTPase by Western blot method
[3] = system: Protein farnesyltransferase subunit beta (Homo sapiens), P49356 [W102T,Y154T]; assay: Binding affinity to FTase W102T/Y154T mutant in african green monkey COS7 lysate assessed as prenylation of CFP-CAAX by Western blot method; conditions: COS-7
Protein farnesyltransferase subunit beta (Homo sapiens), P49356 [W102T,Y154T], sequence (P49356 whole entry W102T/Y154T): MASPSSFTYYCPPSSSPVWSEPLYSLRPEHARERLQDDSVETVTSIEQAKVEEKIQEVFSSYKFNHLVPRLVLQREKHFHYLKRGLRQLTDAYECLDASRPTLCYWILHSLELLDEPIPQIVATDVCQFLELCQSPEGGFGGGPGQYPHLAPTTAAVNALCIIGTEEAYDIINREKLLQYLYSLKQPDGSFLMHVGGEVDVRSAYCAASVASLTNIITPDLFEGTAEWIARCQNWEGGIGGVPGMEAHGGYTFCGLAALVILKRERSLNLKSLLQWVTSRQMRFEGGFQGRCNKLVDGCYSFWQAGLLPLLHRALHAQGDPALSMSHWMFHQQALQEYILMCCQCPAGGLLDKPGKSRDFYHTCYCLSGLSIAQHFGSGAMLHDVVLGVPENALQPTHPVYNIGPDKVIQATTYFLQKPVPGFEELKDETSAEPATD

[4] = system: COS-7; assay: Binding affinity to RabGGTase in african green monkey COS7 lysate assessed as prenylation of Rab by two-dimensional SDS-PAGE method
[5] = Binding affinity to FTase by X-ray crystallography
[6] = Binding affinity to RabGGTase by NBD fluorescence assay
[7] = Binding affinity to GGTase-1 by NBD fluorescence assay
[8] = system: Protein farnesyltransferase subunit beta (Homo sapiens), P49356 [Y154T]; assay: Binding affinity to FTase Y154T mutant assessed as prenylation of Ki-Ras by ESI-MS analysis
Protein farnesyltransferase subunit beta (Homo sapiens), P49356 [Y154T], sequence (P49356 whole entry Y154T): as the sequence (P49356 whole entry W102T/Y154T) above, with T102W counted along it

[9] = system: COS-7; assay: Binding affinity to wild type FTase in african green monkey COS7 lysate assessed as prenylation of CFP-CAAX by Western blot method
[10] = system: COS-7; assay: Binding affinity to GGTase-1 F53Y/Y126T mutant in african green monkey COS7 lysate assessed as protein prenylation by two-dimensional SDS-PAGE method
[11] = system: Protein farnesyltransferase subunit beta (Homo sapiens), P49356 [W102T,Y365F]; assay: Binding affinity to FTase W102T/Y365F mutant assessed as prenylation of Ki-Ras by Western blot analysis
Protein farnesyltransferase subunit beta (Homo sapiens), P49356 [W102T,Y365F], sequence (P49356 whole entry W102T/Y365F): as the sequence (P49356 whole entry W102T/Y154T) above, with T154Y, Y365F counted along it

[12] = system: Geranylgeranyl transferase type-1 subunit beta (Homo sapiens), P53609 [F52Y,Y126T]; assay: Binding affinity to GGTase-1 F52Y/Y126T mutant assessed as prenylation of RhoA GTPase by Western blot method
Geranylgeranyl transferase type-1 subunit beta (Homo sapiens), P53609 [F52Y,Y126T], sequence (P53609 whole entry F52Y/Y126T): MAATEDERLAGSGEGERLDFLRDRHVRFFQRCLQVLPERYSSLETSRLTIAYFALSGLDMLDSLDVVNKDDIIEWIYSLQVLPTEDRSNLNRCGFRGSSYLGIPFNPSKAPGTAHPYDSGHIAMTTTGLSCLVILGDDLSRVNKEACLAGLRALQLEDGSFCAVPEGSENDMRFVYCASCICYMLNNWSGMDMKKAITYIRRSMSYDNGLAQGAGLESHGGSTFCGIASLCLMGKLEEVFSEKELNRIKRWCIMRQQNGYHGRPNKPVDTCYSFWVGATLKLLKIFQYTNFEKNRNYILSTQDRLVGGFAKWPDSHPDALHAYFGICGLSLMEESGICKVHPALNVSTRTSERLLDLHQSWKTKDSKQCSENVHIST

[13] = Binding affinity to GGTase-1 assessed as prenylation of RhoA by SDS PAGE
[14] = system: Protein farnesyltransferase subunit beta (Homo sapiens), P49356 [W102T]; assay: Binding affinity to FTase W102T mutant assessed as prenylation of CFP-CAAX by ESI-MS analysis
[15] = system: Protein farnesyltransferase subunit beta (Homo sapiens), P49356 [W102T,Y154T]; assay: Binding affinity to FTase W102T/Y154T mutant assessed as prenylation of CFP-CAAX by Western blot analysis
[16] = Binding affinity to FTase assessed as prenylation of Ki-Ras by SDS PAGE
[17] = system: Geranylgeranyl transferase type-1 subunit beta (Homo sapiens), P53609 [Y126T]; assay: Binding affinity to GGTase-1 Y126T mutant assessed as prenylation of RhoA GTPase by Western blot method
Geranylgeranyl transferase type-1 subunit beta (Homo sapiens), P53609 [Y126T], sequence (P53609 whole entry Y126T): as the sequence (P53609 whole entry F52Y/Y126T) above, with Y52F counted along it

[18] = system: Protein farnesyltransferase subunit beta (Homo sapiens), P49356 [W102T,Y365F]; assay: Binding affinity to FTase W102T/Y365F mutant assessed as prenylation of CFP-CAAX by ESI-MS analysis
[19] = Binding affinity to RabGGTase assessed as prenylation of Rab27 by SDS PAGE
[20] = system: Protein farnesyltransferase subunit beta (Homo sapiens), P49356 [W102T]; assay: Binding affinity to FTase W102T mutant assessed as prenylation of CFP-CAAX by Western blot analysis
[21] = system: Geranylgeranyl transferase type-1 subunit beta (Homo sapiens), P53609 [F52Y,F53Y,Y126T]; assay: Binding affinity to GGTase-1 F52Y/F53Y/Y126T mutant in african green monkey COS7 lysate assessed as prenylation of RhoA by Western blot method; conditions: COS-7
Geranylgeranyl transferase type-1 subunit beta (Homo sapiens), P53609 [F52Y,F53Y,Y126T], sequence (P53609 whole entry F52Y/F53Y/Y126T): as the sequence (P53609 whole entry F52Y/Y126T) above, with F53Y counted along it

[22] = system: Protein farnesyltransferase subunit beta (Homo sapiens), P49356 [W102T,Y365F]; assay: Binding affinity to FTase W102T/Y365F mutant assessed as prenylation of Ki-Ras by ESI-MS analysis
[23] = system: Protein farnesyltransferase subunit beta (Homo sapiens), P49356 [Y154T]; assay: Binding affinity to FTase Y154T mutant assessed as prenylation of CFP-CAAX by Western blot analysis
[24] = system: COS-7; assay: Binding affinity to GGTase-1 F53Y/Y126T mutant in african green monkey COS7 lysate assessed as prenylation of RhoA by Western blot method
[25] = system: Protein farnesyltransferase subunit beta (Homo sapiens), P49356 [W102T,Y365F]; assay: Binding affinity to FTase W102T/Y365F mutant assessed as prenylation of CFP-CAAX by Western blot analysis
[26] = system: Protein farnesyltransferase subunit beta (Homo sapiens), P49356 [Y154T]; assay: Binding affinity to FTase Y154T mutant assessed as prenylation of Ki-Ras by Western blot analysis
[27] = system: Protein farnesyltransferase subunit beta (Homo sapiens), P49356 [W102T,Y154T]; assay: Binding affinity to FTase W102T/Y154T mutant assessed as prenylation of CFP-CAAX by ESI-MS analysis
[28] = Binding affinity to RabGGTase assessed as prenylation of Rab7 by SDS PAGE
[29] = Binding affinity to GGTase-1 F53Y/Y126T mutant assessed as prenylation of dansyl-labeled GCVLL by fluorescence based assay
[30] = system: Protein farnesyltransferase subunit beta (Homo sapiens), P49356 [W102T,Y154T]; assay: Binding affinity to FTase W102T/Y154T mutant assessed as prenylation of Ki-Ras by ESI-MS analysis
[31] = Binding affinity to GGTase-1 F53Y/Y126T mutant assessed as prenylation of dansyl-labeled GCVLS by fluorescence based assay
[32] = system: Protein farnesyltransferase subunit beta (Homo sapiens), P49356 [W102T,Y154T,Y205T]; assay: Binding affinity at FTase W102T/Y154T/Y205T mutant in african green monkey COS7 lysate assessed as protein prenylation by two-dimensional SDS-PAGE method; conditions: COS-7
Protein farnesyltransferase subunit beta (Homo sapiens), P49356 [W102T,Y154T,Y205T], sequence (P49356 whole entry W102T/Y154T/Y205T): as the sequence (P49356 whole entry W102T/Y154T) above, with Y205T counted along it

[33] = system: Protein farnesyltransferase subunit beta (Homo sapiens), P49356 [W102T,Y154T]; assay: Binding affinity to FTase W102T/Y154T mutant assessed as prenylation of Ki-Ras by Western blot analysis
[34] = system: Protein farnesyltransferase subunit beta (Homo sapiens), P49356 [W102T,Y154T,Y205T]; assay: Binding affinity to FTase W102T/Y154T/Y205T mutant in african green monkey COS7 lysate assessed as prenylation of CFP-CAAX by Western blot method; conditions: COS-7
[35] = system: Protein farnesyltransferase subunit beta (Homo sapiens), P49356 [Y154T]; assay: Binding affinity to FTase Y154T mutant assessed as prenylation of CFP-CAAX by ESI-MS analysis
[36] = system: Protein farnesyltransferase subunit beta (Homo sapiens), P49356 [W102T]; assay: Binding affinity to FTase W102T mutant assessed as prenylation of Ki-Ras by ESI-MS analysis

Protein farnesyltransferase subunit beta (Homo sapiens), P49356 [W102T], sequence (P49356 whole entry W102T): as the sequence (P49356 whole entry W102T/Y154T) above, with T154Y counted along it

With `C/C(=C\COP(=O)(O)OP(=O)(O)O)CC/C=C(\C)CNC(=O)CCCC[C@@H]1SC[C@@H]2NC(=O)N[C@@H]21` [biotin-geranylpyrophosphate] the Activity [1] was “inactive”, the Activity [2] was “Active” and the Activity [3] was “Active”. The Activity [4] was “Active”, the Activity [5] was “Active” and the Kd [6] was 2.2 nM. For the same compound, the Kd [7] was 45 nM, the Activity [8] was “inactive” and the Activity [9] was “Active”. For the same compound, the Activity [10] was “Active”, the Activity [11] was “inactive” and the Activity [12] was “inactive”. The Activity [13] was “inactive”, the Activity [14] was “inactive” and the Activity [15] was “Active”. For the same compound, the Activity [16] was “inactive”, the Activity [17] was “Active” and the Activity [18] was “inactive”. The Activity [19] was “Active”, the Activity [20] was “inactive” and the Activity [21] was “Active”. For the same compound, the Activity [22] was “inactive”, the Activity [23] was “inactive” and the Activity [24] was “Active”. For the same compound, the Activity [25] was “inactive”, the Activity [26] was “inactive” and the Activity [27] was “Active”. For the same compound, the Activity [28] was “Active”, the Activity [29] was “inactive” and the Activity [30] was “Active”. For the same compound, the Activity [31] was “inactive”, the Activity [32] was “Active” and the Activity [33] was “Active”. The Activity [34] was “Active”, the Activity [35] was “inactive” and the Activity [36] was “inactive”.
